Measurements published in patent US9056835B2, “LPA2 receptor-specific benzoic acid derivatives” (University of Tennessee Research Foundation, priority 2012, dated 2015).

Tests used:
ERK1/2 = assay: Immunoblot, ERK1/2 activation; type: cell-based, mouse; settings: 10 μM, 10 min
Description: To detect ligand-induced ERK1/2 activation, vector- and LPA2-transfected MEF cells were serum starved 3 h before exposure to 1 μM LPA, 1 μM OTP, 10 μM GRI977143, or vehicle for 10 min. For ERK1/2 activation and PARP-1 cleavage measurements, cells were harvested in 1× Laemmli sample buffer and separated using 12% Laemmli SDS-polyacrylamide gels. To assess Bax translocation, cell lysates were separated into cytosolic, mitochondrial, and nuclear fractions using the Cell Fractionation Kit-Standard (MitoSciences; Eugene, Oreg.). […] Samples were boiled for 5 min and loaded onto 12% SDS-polyacrylamide gels. Western blotting was carried out as previously described (Valentine et al., 2010). Primary antibodies against pERK1/2, PARP-1, Bax (Cell Signaling Technology; Beverly, Mass.), actin (Sigma-Aldrich), and anti-rabbit-horseradish peroxidase secondary antibodies (Promega) were used according to the instructions of the manufacturer.

LPA2, TRIP6 and NHERF2 = target: T1, LPA2, TRIP6 and NHERF2 (Homo sapiens, UniProt Q9HBW0); assay: Ligand-induced macromolecular complex formation with LPA2; type: cell-based; settings: HEK293T, FLAG-LPA2 and EGFP-NHERF2, 10 μM, 10 min
T1 construct: expressed in transfected cells; host or cells: HEK293T, transient co-transfection
Excerpt: LPA2 forms a ternary complex with TRIP6 and NHERF2. This complex is assembled via multiple protein-protein interactions that include: binding of NHERF2 to the C-terminal PSD95/Dlg/ZO-1 domain (PDZ)-binding motif of LPA2, the binding of TRIP6 to the Zinc-finger-like CxxC motif of LPA2, and binding of NHERF2 to the PDZ-binding motif of TRIP6. To examine ligand-induced macromolecular complex formation, HEK293T cells were transfected with FLAG-LPA2 and enhanced green fluorescent protein (EGFP)-NHERF2, and the cells were exposed to 10 μM GRI977143 for 10 min as described in detail in our previous publication (E et al., The LPA2 receptor-mediated supramolecular complex formation regulates its antiapoptotic effect. J Biol Chem (2009) 284: 14558-14571). The complex was pulled down using anti-FLAG M2 monoclonal antibody-conjugated agarose beads (Sigma-Aldrich) and processed for western blotting using anti-EGFP (gift from Dr. A. P. Naren; UTHSC, TN), anti-FLAG (Sigma-Aldrich), and anti-TRIP6 (Bethyl Laboratories; Montgomery, Tex.) antibodies.

LPA2 = LPA2 (Homo sapiens, UniProt Q9HBW0); assay: Fura-2AM Ca2+ mobilization in LPA2 DKO MEF cells; type: cell-based; set-up: expressed in transfected cells; host or cells: mouse embryonic fibroblasts from LPA1/2 double-knockout mice, lentiviral transduction; settings: LPA2 Ca2+ mobilization in DKO MEF cells, mean fluorescence ratio
Description: (§1) Fluorescence was read every 3.42 seconds for a total of 70 seconds at Ex/Emλ of 340/510 nm and 380/510 nm. Data (relative fluorescence) was then recorded as a mean fluorescence ratio value of the triplicates for each concentration. Graph Pad Prism version 5.0a was then used to fit a non-linear regression curve in a variable slope model (A) to determine the EC50, Emax, and curve fit (R^2)(B).
Mouse embryonic fibroblast (MEF) cells used in this study isolated from LPA1/2 double knock out (LPA2-DKO) mice {Lin, 2007 #132}. These MEF express LPA4/5/6 receptors endogenously at lower levels but completely lack LPA1/2/3 receptor subtypes. The human LPA2 receptor was reintroduced into these MEF cells by lentiviral transduction, which are designated LPA2 DKO MEF {Lin, 2007 #132}. Empty vector-transduced MEF cells, designates as EV DKO MEF, were used as a control. Cells were cultured in a DMEM supplemented with 10% v/v fetal bovine serum (FBS), 2 mM L-glutamine, 100 U/ml penicillin, and 100 μg/mL streptomycin. During serum starvation, the growth medium was replaced with DMEM containing 0.1% (w/v) BSA.
as §1

Chain of LPA2 (Q9HBW0 whole entry): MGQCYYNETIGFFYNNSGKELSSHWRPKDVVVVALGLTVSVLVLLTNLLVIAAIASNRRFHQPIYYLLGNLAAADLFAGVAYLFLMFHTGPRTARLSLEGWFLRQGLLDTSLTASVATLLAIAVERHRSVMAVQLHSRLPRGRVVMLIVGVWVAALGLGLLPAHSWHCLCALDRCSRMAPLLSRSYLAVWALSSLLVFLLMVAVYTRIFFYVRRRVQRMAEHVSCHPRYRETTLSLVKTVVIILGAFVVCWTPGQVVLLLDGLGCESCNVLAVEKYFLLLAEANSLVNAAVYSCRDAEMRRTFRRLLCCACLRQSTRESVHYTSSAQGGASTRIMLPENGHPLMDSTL
T1 sequence (Q9HBW0 whole entry): as above
T1 sequence (Q15599 whole entry partner): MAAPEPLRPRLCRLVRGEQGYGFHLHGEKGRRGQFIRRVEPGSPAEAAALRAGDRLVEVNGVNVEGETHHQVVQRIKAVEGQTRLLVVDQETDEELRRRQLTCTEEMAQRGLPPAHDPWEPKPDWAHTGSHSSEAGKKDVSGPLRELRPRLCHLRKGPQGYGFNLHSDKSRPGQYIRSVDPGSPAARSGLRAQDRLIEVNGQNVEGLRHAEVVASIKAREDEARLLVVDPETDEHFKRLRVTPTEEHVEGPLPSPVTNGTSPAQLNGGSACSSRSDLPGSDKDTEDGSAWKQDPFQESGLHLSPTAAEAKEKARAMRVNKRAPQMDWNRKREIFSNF
T1 sequence (Q15654 whole entry partner): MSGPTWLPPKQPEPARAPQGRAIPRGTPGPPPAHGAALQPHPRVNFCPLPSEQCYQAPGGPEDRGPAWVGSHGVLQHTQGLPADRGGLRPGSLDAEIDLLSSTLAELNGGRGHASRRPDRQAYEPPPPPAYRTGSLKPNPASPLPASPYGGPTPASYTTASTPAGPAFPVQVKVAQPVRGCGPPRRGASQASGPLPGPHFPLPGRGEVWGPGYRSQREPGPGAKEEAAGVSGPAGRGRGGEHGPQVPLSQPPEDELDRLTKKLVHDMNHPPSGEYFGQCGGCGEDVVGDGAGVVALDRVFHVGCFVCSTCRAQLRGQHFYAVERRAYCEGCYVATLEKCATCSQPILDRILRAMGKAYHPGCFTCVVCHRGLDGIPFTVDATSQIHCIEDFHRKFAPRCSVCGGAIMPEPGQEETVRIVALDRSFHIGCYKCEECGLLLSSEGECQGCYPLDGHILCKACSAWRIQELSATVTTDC

Emax (MFR) (LPA2)	SMILES	increase in ERK1/2 activation (ERK1/2; LPA2-transduced MEF)	ERK1/2 basal activity (ERK1/2; vector-transduced MEF)	assembly of macromolecular complex LPA2-TRIP6-NHERF2 (LPA2, TRIP6 and NHERF2)
	O=C(O)c1ccccc1SCCCN1C(=O)c2cccc3cccc(c23)C1=O [GRI977143]	9.6 fold	did not alter the basal activity	elicited the assembly of the signaling complex
1.2 MFR	CCCCCCCC/C=C\CCCCCCCC(=O)OC[C@@H](O)COP(=O)(O)O [LPA 18:1, Lysophosphatidic acid (18:1)]			
